Data as given in patent US20260199484A1, “PROTAC DEGRADERS OF MLLT1 AND/OR MLLT3” (DARK BLUE THERAPEUTICS LTD, priority 2024, published 2026).

Key:
Format in all cases: cell-based
MLLT1 = target: T1, MLLT1 (Homo sapiens, UniProt Q03111); experiment: MLLT1 degradation assay in MV4-11 cells (JESS, 24 h); set-up: endogenous in cells; host or cells: MV4-11 (ATCC CRL-9591); conditions: vs DMSO control
T1 sequence (Q03111 1-559): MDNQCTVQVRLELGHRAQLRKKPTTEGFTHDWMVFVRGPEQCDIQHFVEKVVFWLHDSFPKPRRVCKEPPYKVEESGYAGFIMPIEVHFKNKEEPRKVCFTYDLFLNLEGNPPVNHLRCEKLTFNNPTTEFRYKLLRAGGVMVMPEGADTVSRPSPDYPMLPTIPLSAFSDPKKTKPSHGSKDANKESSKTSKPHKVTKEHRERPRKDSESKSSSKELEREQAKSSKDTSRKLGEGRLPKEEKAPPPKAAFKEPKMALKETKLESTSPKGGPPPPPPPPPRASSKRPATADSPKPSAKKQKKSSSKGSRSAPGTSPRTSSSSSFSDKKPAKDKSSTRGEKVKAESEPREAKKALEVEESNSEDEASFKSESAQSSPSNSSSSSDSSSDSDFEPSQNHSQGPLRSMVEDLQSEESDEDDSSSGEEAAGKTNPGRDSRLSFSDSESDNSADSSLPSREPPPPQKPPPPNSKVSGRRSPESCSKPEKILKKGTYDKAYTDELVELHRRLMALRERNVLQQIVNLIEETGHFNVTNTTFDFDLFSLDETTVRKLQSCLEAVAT
Outline: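 MV4-11 cells treated at 1000, 100 and 10 nM (0.1% DMSO) for 24 h at 37° C; lysates (4 ug protein) run on JESS capillary immunoassay with MLLT1 and GAPDH antibodies. Peak areas give % degradation versus DMSO, binned A (≥75%) to D (<25%).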

MV4-11 cells [1] = experiment: MV4-11 cellular proliferative assay, Assay Format B (CTG 2.0, 168 h); conditions: Homo sapiens, Assay format B, 168 h, read-out: IC50 (MV4-11 cellular proliferative assay)
Description: MV4-11 cells at a confluency of ~50-80% was used for cell growth assay. 600 cells/well in a 384-well opaque cell culture plate (6007680; Perkin Elmer) were seeded in 40 μL of complete medium (IMDM+10% FBS+1× Penicillin-Streptomycin). Cells were incubated overnight at 37° C., 5% CO2. 10 mM DMSO stocks were prepared, cells were treated with 10 concentrations of test compounds starting from 1 uM or 100 nM, 3-fold dilution in 10 uL (5× concentration) of complete medium. Final DMSO concentration was 0.3%. Culture plates were centrifuged at 40×g, 30s. Cells were incubated with compounds for 168 h (7 days). After 7 days, 20 uL CTG 2.0 reagent (G9242; Promega) was added per well and luminescence reading was taken in Envision Xcite 2105 multimode plate reader. Data was analyzed in GraphPad Prism 10.0 and data was shown as % viability with respect to DMSO control and dose-response curves were generated using four parameter logistic regression. Assay quality was determined by z-factor calculation using positive and negative controls.

MV4-11 cells [2] = experiment: MV4-11 cellular proliferative assay, Assay Format A (CellTiter-Glo, 120 h); conditions: Homo sapiens, Assay format A, 120 h, read-out: IC50 (MV4-11 cellular proliferative assay)
Outline: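 MV4-11 cells seeded at 50 cells/well and exposed for 120 h to compound (10 semi-log dilutions, top 30 μM) or DMSO. Viability by CellTiter-Glo luminescence, normalised to DMSO and reference-compound wells; AC50 from Hill fit.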

SMILES	MLLT1% Degradation @ 0.01 μM (MLLT1)	MLLT1% Degradation @ 0.1 μM (MLLT1)	MLLT1% Degradation @ 1 μM (MLLT1)	IC50 (MV4-11 cells [1])	IC50 (MV4-11 cells [2])
Cc1nn(CCCCCCCC=C(Cl)c2ccc3c(c2)n(C)c(=O)n3C2CCC(=O)NC2=O)c2cc(C(=O)Nc3cc4[nH]c([C@H]5CCCN5C)cc4cn3)ccc12 (mixture of isomers) [Example 40]	A (Category A: A≥75% degradation)	A (Category A: A≥75% degradation)	A (Category A: A≥75% degradation)	< 100 nM	
Cc1nn(CCCCCCCC#Cc2cccc3c2CN([C@H]2CCC(=O)NC2=O)C3=O)c2cc(C(=O)Nc3cc4[nH]c([C@H]5CCCN5C)cc4cn3)ccc12 (relative stereo) [Example 98, 1-(9-(2-((rel-S)-2,6-dioxopiperidin-3-yl)-1-oxoisoindolin-4-yl)non-8-yn-1-yl)-3-methyl-N-(2-((R)-1-methylpyrrolidin-2-yl)-1H-pyrrolo[3,2-c]pyridin-6-yl)-1H-indazole-6-carboxamide]	A (Category A: A≥75% degradation)	A (Category A: A≥75% degradation)	A (Category A: A≥75% degradation)	< 100 nM	
Cc1nn(CCCCCCCC#Cc2cccc3c2CN([C@@H]2CCC(=O)NC2=O)C3=O)c2cc(C(=O)Nc3cc4[nH]c([C@H]5CCCN5C)cc4cn3)ccc12 (relative stereo) [Example 99, 1-(9-(2-((rel-R)-2,6-dioxopiperidin-3-yl)-1-oxoisoindolin-4-yl)non-8-yn-1-yl)-3-methyl-N-(2-((R)-1-methylpyrrolidin-2-yl)-1H-pyrrolo[3,2-c]pyridin-6-yl)-1H-indazole-6-carboxamide]	A (Category A: A≥75% degradation)	A (Category A: A≥75% degradation)	A (Category A: A≥75% degradation)	< 100 nM	
Cc1nn(CCCCCCCC#Cc2cccc3c2CN([C@H]2CCC(=O)NC2=O)C3=O)c2cc(C(=O)Nc3cc4[nH]c([C@H]5CCCN5C)c(Cl)c4cn3)ccc12 (relative stereo) [Example 100, N-(3-chloro-2-((R)-1-methylpyrrolidin-2-yl)-1H-pyrrolo[3,2-c]pyridin-6-yl)-1-(9-(2-((rel-S)-2,6-dioxopiperidin-3-yl)-1-oxoisoindolin-4-yl)non-8-yn-1-yl)-3-methyl-1H-indazole-6-carboxamide]				< 100 nM	
Cc1nn(CCCCCCCC#Cc2cccc3c2CN([C@@H]2CCC(=O)NC2=O)C3=O)c2cc(C(=O)Nc3cc4[nH]c([C@H]5CCCN5C)c(Cl)c4cn3)ccc12 (relative stereo) [Example 101, N-(3-chloro-2-((R)-1-methylpyrrolidin-2-yl)-1H-pyrrolo[3,2-c]pyridin-6-yl)-1-(9-(2-((rel-R)-2,6-dioxopiperidin-3-yl)-1-oxoisoindolin-4-yl)non-8-yn-1-yl)-3-methyl-1H-indazole-6-carboxamide]				< 100 nM	
Cc1nn(CCCCCCCC#Cc2cccc3c2CN([C@H]2CCC(=O)NC2=O)C3=O)c2cc(C(=O)Nc3cc4[nH]c([C@H]5CCCN5C)cc4cn3)c(F)cc12 (relative stereo) [Example 102, 1-(9-(2-((rel-S)-2,6-dioxopiperidin-3-yl)-1-oxoisoindolin-4-yl)non-8-yn-1-yl)-5-fluoro-3-methyl-N-(2-((R)-1-methylpyrrolidin-2-yl)-1H-pyrrolo[3,2-c]pyridin-6-yl)-1H-indazole-6-carboxamide]	A (Category A: A≥75% degradation)	A (Category A: A≥75% degradation)	A (Category A: A≥75% degradation)	< 100 nM	
Cc1nn(CCCCCCCC#Cc2cccc(C(=O)N[C@H]3CCC(=O)NC3=O)n2)c2cc(C(=O)Nc3cc4[nH]c([C@H]5CCCN5C)cc4cn3)ccc12 [Example 42, 1-(9-(6-(((S)-2,6-dioxopiperidin-3-yl)carbamoyl)pyridin-2-yl)non-8-yn-1-yl)-3-methyl-N-(2-((R)-1-methylpyrrolidin-2-yl)-1H-pyrrolo[3,2-c]pyridin-6-yl)-1H-indazole-6-carboxamide]	B (Category B: 50%≤B<75% degradation)	A (Category A: A≥75% degradation)	A (Category A: A≥75% degradation)		< 100 nM
[2H]C([2H])([2H])N1CCC[C@@H]1c1cc2cnc(NC(=O)c3ccc4c(C)nn(CCCCCCCC#Cc5cccc6c5CN(C5CCC(=O)NC5=O)C6=O)c4c3)cc2[nH]1 (stereo partly drawn) [Example 44, 1-(9-(2-(2,6-dioxopiperidin-3-yl)-1-oxoisoindolin-4-yl)non-8-yn-1-yl)-3-methyl-N-(2-((R)-1-(methyl-d3)pyrrolidin-2-yl)-1H-pyrrolo[3,2-c]pyridin-6-yl)-1H-indazole-6-carboxamide]	B (Category B: 50%≤B<75% degradation)	A (Category A: A≥75% degradation)	A (Category A: A≥75% degradation)		< 100 nM
Cc1nn(CCCCCCC#Cc2cccc3c2CN(C2CCC(=O)NC2=O)C3=O)c2cc(C(=O)Nc3cc4[nH]c([C@H]5CCCN5C)cc4cn3)ccc12 (stereo partly drawn) [Example 45, 1-(8-(2-(2,6-dioxopiperidin-3-yl)-1-oxoisoindolin-4-yl)oct-7-yn-1-yl)-3-methyl-N-(2-((R)-1-methylpyrrolidin-2-yl)-1H-pyrrolo[3,2-c]pyridin-6-yl)-1H-indazole-6-carboxamide]	A (Category A: A≥75% degradation)	A (Category A: A≥75% degradation)	A (Category A: A≥75% degradation)		< 100 nM
Cc1nn(CCCCC#Cc2cccc3c2CN(C2CCC(=O)NC2=O)C3=O)c2cc(C(=O)Nc3cc4[nH]c([C@H]5CCCN5C)cc4cn3)ccc12 (stereo partly drawn) [Example 46, 1-(6-(2-(2,6-dioxopiperidin-3-yl)-1-oxoisoindolin-4-yl)hex-5-yn-1-yl)-3-methyl-N-(2-((R)-1-methylpyrrolidin-2-yl)-1H-pyrrolo[3,2-c]pyridin-6-yl)-1H-indazole-6-carboxamide]	A (Category A: A≥75% degradation)	A (Category A: A≥75% degradation)	B (Category B: 50%≤B<75% degradation)		< 100 nM
Cc1nn(CCCCCN2CCN(c3cccc4c3C(=O)N(C3CCC(=O)NC3=O)C4=O)CC2)c2cc(C(=O)Nc3cc4[nH]c([C@H]5CCCN5C)cc4cn3)ccc12 (stereo partly drawn) [Example 47, 1-(5-(4-(2-(2,6-dioxopiperidin-3-yl)-1,3-dioxoisoindolin-4-yl)piperazin-1-yl)pentyl)-3-methyl-N-(2-((R)-1-methylpyrrolidin-2-yl)-1H-pyrrolo[3,2-c]pyridin-6-yl)-1H-indazole-6-carboxamide]	D (Category D: D<25% degradation)	D (Category D: D<25% degradation)	B (Category B: 50%≤B<75% degradation)		< 100 nM
CCN1CCC[C@@H]1c1cc2cnc(NC(=O)c3ccc4c(C)nn(CCCCCCCC#Cc5cccc6c5CN(C5CCC(=O)NC5=O)C6=O)c4c3)cc2[nH]1 (stereo partly drawn) [Example 48, 1-(9-(2-(2,6-dioxopiperidin-3-yl)-1-oxoisoindolin-4-yl)non-8-yn-1-yl)-N-(2-((R)-1-ethylpyrrolidin-2-yl)-1H-pyrrolo[3,2-c]pyridin-6-yl)-3-methyl-1H-indazole-6-carboxamide]	C (Category C: 25%≤C<50% degradation)	B (Category B: 50%≤B<75% degradation)	A (Category A: A≥75% degradation)		< 100 nM
